These results are taken from article PMC5311937, “In Vitro Characterization and Concerted Function of Three Core Enzymes of a Glycyl Radical Enzyme - Associated Bacterial Microcompartment” (Scientific Reports, 2017).

Usually Km stands for the substrate concentration at which the rate is half of its maximum. The term stoichiometry N denotes the number of molecules, sites or subunits per partner or assembly.

Assay [1] deals with T1, AldDH (acylating aldehyde dehydrogenase, PduP) (Rhodopseudomonas palustris, UniProt Q21A49).
T1 construct: gene RPC_1174; N-terminal encapsulation peptide kept
T1 sequence (Q21A49 entry or part of it): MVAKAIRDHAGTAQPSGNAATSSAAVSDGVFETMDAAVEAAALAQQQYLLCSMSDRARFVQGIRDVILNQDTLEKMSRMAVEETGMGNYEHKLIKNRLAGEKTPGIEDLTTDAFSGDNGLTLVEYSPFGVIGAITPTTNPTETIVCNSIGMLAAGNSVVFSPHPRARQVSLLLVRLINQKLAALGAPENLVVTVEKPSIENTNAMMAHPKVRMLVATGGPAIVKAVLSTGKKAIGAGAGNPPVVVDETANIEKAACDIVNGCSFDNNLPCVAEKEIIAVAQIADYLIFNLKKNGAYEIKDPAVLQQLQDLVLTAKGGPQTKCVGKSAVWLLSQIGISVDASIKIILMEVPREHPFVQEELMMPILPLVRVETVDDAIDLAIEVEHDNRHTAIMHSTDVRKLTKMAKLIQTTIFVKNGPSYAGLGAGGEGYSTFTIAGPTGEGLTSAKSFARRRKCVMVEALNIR
The experiment in a line: NAD+ reduction monitored at […] nm. It is filed as biochemical. The following applies: 5 mM NAD+, 0.5 mM CoA, 200 mM MOPS/KOH pH 7.5; kcat per tetrameric enzyme; read-out: apparent KM.

In assay [2] the target is T1, AldDH (acylating aldehyde dehydrogenase, PduP). The experiment in a line: X-ray crystal structure, […] Å. It is filed as binding. Particulars: active site; pH 4.8, 5 mM NAD+.
Assay [3] addresses acylating aldehyde dehydrogenase (AldDH) from Rhodopseudomonas palustris BisB18, Strep-tagged (Rhodopseudomonas palustris BisB18). As to the kind of experiment: SEC; gel filtration on HiLoad 16/600 Superdex 200 pg, 20 mM MOPS/KOH pH 7.5, 50 mM KCl. On the technique in general: Size exclusion chromatography separates by hydrodynamic size, large species first.
The target is the same in assay [4]. As to the kind of experiment: crystal structure; AldDH co-crystallised with propionyl-CoA at pH 8.1, space group P 2_(1), 1.9 Å; CoA and S-propionylcysteine in the active sites.
The target is the same in assay [5]. As to the kind of experiment: crystal structure; AldDH co-crystallised with propionyl-CoA at pH 4.8, space group P 1, 2.5 Å.
Assay [6] has the same target. The experiment in a line: crystal structure; AldDH co-crystallised with NAD+ at pH 4.8, space group P2_(1), 2.3 Å, twinned.
For assay [7], the target named is T1, AldDH (acylating aldehyde dehydrogenase, PduP). The experiment in a line: X-ray crystal structure, […] Å. It is filed as binding. Particulars: active site, acylated enzyme (Cys330 S-propionylated from propionyl-CoA); crystals at pH 8.1.
For assay [8] the target is unchanged. The experiment in a line: X-ray crystal structure, […] Å. It counts as binding. Particulars: active site; propionyl-CoA or CoA fitted; pH 4.8; also in one site of 5JFN, where Cys330 is S-propionylated (covalent).

For the compound `CCC=O` [propionaldehyde], the Km in assay [1] is 1200 ± 170 µM.

With `NC(=O)c1ccc[n+]([C@@H]2O[C@H](COP(=O)(O)OP(=O)(O)OC[C@H]3O[C@@H](n4cnc5c(N)ncnc54)[C@H](O)[C@@H]3O)[C@@H](O)[C@H]2O)c1` [NAD^+], the “X-ray crystal structure, 2.30 Å” value in assay [2] is recorded as “Electron density in the active sites allowed the fitting of NAD^+”.

For the compound “acylating aldehyde dehydrogenase (AldDH) from Rhodopseudomonas palustris BisB18, Strep-tagged (enzyme)”, the stoichiometry N in assay [3], in assay [4], in assay [5] and in assay [6] was 4 throughout.

As for `CC(C)(COP(=O)(O)OP(=O)(O)OC[C@H]1O[C@@H](n2cnc3c(N)ncnc32)[C@H](O)[C@@H]1OP(=O)(O)O)[C@@H](O)C(=O)NCCC(=O)NCCS` [CoA], in assay [7], the “X-ray crystal structure, 1.90 Å” value was “In three of the four active sites of the tetramer we also found coenzyme A bound”.

As for `CCC(=O)SCCNC(=O)CCNC(=O)[C@H](O)C(C)(C)COP(=O)(O)OP(=O)(O)OC[C@H]1O[C@@H](n2cnc3c(N)ncnc32)[C@H](O)[C@@H]1OP(=O)(O)O` [propionyl-CoA], the “X-ray crystal structure, 2.52 Å” value in assay [8] is “we found electron density that allowed the fitting of either propionyl-CoA or CoA”.
